Where “and” joins values, the source holds several entries; their conditions need not be identical. Equal entries are not always repeated.
System: 494315-158-R-J1-PDC complex spheroid growth, percent test/control
Assay: Anticancer human tumor 494315-158-R-J1-PDC patient-derived soft tissue sarcoma cell line growth inhibition [Asc]
Details: for viability, T/C: stronger effect = lower value
In short: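 Spheroid model: tumor line + HUVEC + hMSC. Single agents and combinations; top conc. at/near clinical Cmax (10 microM if undetermined), half-log dilutions. DMSO stocks at 800-fold test concentration.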

[1] = curve of first compound, second compound 0.1 µM
[2] = curve of first compound, second compound 0.316 µM
[3] = curve of first compound, second compound 1 µM
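Note: compound exposure lasted seven days after spheroids formed for three days.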

In the case of C=C(F)C(=O)N1CCN(c2nc(OCC3CCCN3C)nc3c2CCN(c2cccc4cccc(Cl)c24)C3)CC1CC#N (stereo not drawn) + Cc1c(S(C)(=O)=O)c(-c2cc(F)cc(N3CCN(c4ccc(NS(=O)(=O)c5ccc(NC(CCN6CCC(C(=O)OCCCP(=O)(O)O)CC6)CSc6ccccc6)c(S(=O)(=O)C(F)(F)F)c5)cc4)CC3)c2)c(-c2ccc(Cl)cc2)n1C(C)C, the IC50 [1] is reported as 1810 nM, the IC50 [2] is reported as 1340 nM and the IC50 [3] is reported as 1370 nM. The IC50 (curve of first compound, second compound 3.16 µM) was 367 nM, the IC50 (curve of first compound, second compound 10 µM) was 1470 nM and the viability, T/C (second compound 0.1 µM, first compound 0.0316 µM) was 77.7%. It also gave a viability, T/C (second compound 0.1 µM, first compound 0.1 µM) of 79.6%, a viability, T/C (second compound 0.1 µM, first compound 0.316 µM) of 71.8% and a viability, T/C (second compound 0.1 µM, first compound 1 µM) of 73.7%. The viability, T/C (second compound 0.1 µM, first compound 3.16 µM) was 27.8%, the viability, T/C (second compound 0.1 µM, first compound 10 µM) was 0.16% and the viability, T/C (second compound 0.316 µM, first compound 0.0316 µM) was 73.5%. For the same molecule, the viability, T/C (second compound 0.316 µM, first compound 0.1 µM) was 72.7%, the viability, T/C (second compound 0.316 µM, first compound 0.316 µM) was 75.1% and the viability, T/C (second compound 0.316 µM, first compound 1 µM) was 57%. It also gave a viability, T/C (second compound 0.316 µM, first compound 3.16 µM) of 25.6%, a viability, T/C (second compound 0.316 µM, first compound 10 µM) of 0.14% and a viability, T/C (second compound 1 µM, first compound 0.0316 µM) of 64.3%. For the same molecule, the viability, T/C (second compound 1 µM, first compound 0.1 µM) was 67%, the viability, T/C (second compound 1 µM, first compound 0.316 µM) was 65.5% and the viability, T/C (second compound 1 µM, first compound 1 µM) was 61.1%. For the same molecule, the viability, T/C (second compound 1 µM, first compound 3.16 µM) was 20.6%, the viability, T/C (second compound 1 µM, first compound 10 µM) was 0.12% and the viability, T/C (second compound 3.16 µM, first compound 0.0316 µM) was 55.9%. It also gave a viability, T/C (second compound 3.16 µM, first compound 0.1 µM) of 53.4%, a viability, T/C (second compound 3.16 µM, first compound 0.316 µM) of 47.8% and a viability, T/C (second compound 3.16 µM, first compound 1 µM) of 41.1%. The viability, T/C (second compound 3.16 µM, first compound 3.16 µM) was 11.1%, the viability, T/C (second compound 3.16 µM, first compound 10 µM) was 0.15% and the viability, T/C (second compound 10 µM, first compound 0.0316 µM) was 75.8%. For the same molecule, the viability, T/C (second compound 10 µM, first compound 0.1 µM) was 78.5%, the viability, T/C (second compound 10 µM, first compound 0.316 µM) was 73.5% and the viability, T/C (second compound 10 µM, first compound 1 µM) was 65.3%. It also gave a viability, T/C (second compound 10 µM, first compound 3.16 µM) of 20% and a viability, T/C (second compound 10 µM, first compound 10 µM) of 0.24%.
In the case of CCN1C(C(=O)NC23CCC(C(=O)O)(CC2)CC3)C(c2cccc(Cl)c2F)C2(C(=O)Nc3cc(Cl)ccc32)C12CCCCC2 (stereo not drawn), the viability, T/C (compound 0.00949 µM) is reported as 86.2% and 96.4%, the IC50 (compound alone, run of 09/27/2022) is reported as greater than 3000 nM and the IC50 (curve of compound) is reported as greater than 3000 nM.
Work on C=C(F)C(=O)N1CCN(c2nc(OCC3CCCN3C)nc3c2CCN(c2cccc4cccc(Cl)c24)C3)CC1CC#N (stereo not drawn) + CCN1C(C(=O)NC23CCC(C(=O)O)(CC2)CC3)C(c2cccc(Cl)c2F)C2(C(=O)Nc3cc(Cl)ccc32)C12CCCCC2 yielded an IC50 (curve of first compound, second compound 0.03 µM) of 4190 nM, an IC50 (curve of first compound, second compound 0.0949 µM) of 3180 nM and an IC50 (curve of first compound, second compound 0.3 µM) of 3800 nM. For the same molecule, the IC50 (curve of first compound, second compound 0.949 µM) was 4170 nM, the IC50 (curve of first compound, second compound 3 µM) was 4110 nM and the viability, T/C (second compound 0.03 µM, first compound 0.0316 µM) was 106%. For the same molecule, the viability, T/C (second compound 0.03 µM, first compound 0.1 µM) was 103%, the viability, T/C (second compound 0.03 µM, first compound 0.316 µM) was 105% and the viability, T/C (second compound 0.03 µM, first compound 1 µM) was 118%. The viability, T/C (second compound 0.03 µM, first compound 3.16 µM) was 66%, the viability, T/C (second compound 0.03 µM, first compound 10 µM) was 0.19% and the viability, T/C (second compound 0.0949 µM, first compound 0.0316 µM) was 99.9%. The viability, T/C (second compound 0.0949 µM, first compound 0.1 µM) was 101%, the viability, T/C (second compound 0.0949 µM, first compound 0.316 µM) was 93.2% and the viability, T/C (second compound 0.0949 µM, first compound 1 µM) was 95.2%. It also gave a viability, T/C (second compound 0.0949 µM, first compound 3.16 µM) of 50.2%, a viability, T/C (second compound 0.0949 µM, first compound 10 µM) of 0.16% and a viability, T/C (second compound 0.3 µM, first compound 0.0316 µM) of 110%. The viability, T/C (second compound 0.3 µM, first compound 0.1 µM) was 93%, the viability, T/C (second compound 0.3 µM, first compound 0.316 µM) was 80.3% and the viability, T/C (second compound 0.3 µM, first compound 1 µM) was 111%. The viability, T/C (second compound 0.3 µM, first compound 3.16 µM) was 59.5%, the viability, T/C (second compound 0.3 µM, first compound 10 µM) was 0.19% and the viability, T/C (second compound 0.949 µM, first compound 0.0316 µM) was 87.1%. It also gave a viability, T/C (second compound 0.949 µM, first compound 0.1 µM) of 109%, a viability, T/C (second compound 0.949 µM, first compound 0.316 µM) of 95.9% and a viability, T/C (second compound 0.949 µM, first compound 1 µM) of 76.7%. For the same molecule, the viability, T/C (second compound 0.949 µM, first compound 3.16 µM) was 70%, the viability, T/C (second compound 0.949 µM, first compound 10 µM) was 0.2% and the viability, T/C (second compound 3 µM, first compound 0.0316 µM) was 96.7%. The viability, T/C (second compound 3 µM, first compound 0.1 µM) was 102%, the viability, T/C (second compound 3 µM, first compound 0.316 µM) was 100% and the viability, T/C (second compound 3 µM, first compound 1 µM) was 87.2%. The viability, T/C (second compound 3 µM, first compound 3.16 µM) was 65.6% and the viability, T/C (second compound 3 µM, first compound 10 µM) was 0.27%.
NC(=O)C(=Cn1cnc(-c2cc(C(F)(F)F)cc(C(F)(F)F)c2)n1)c1cncnc1 + CNC(C)C(=O)NC1CN(S(=O)(=O)c2cccc(S(=O)(=O)N3CCC4CCC(C(=O)NC(c5ccccc5)c5ccccc5)N4C(=O)C(NC(=O)C(C)NC)C3)c2)CCC2CCC(C(=O)NC(c3ccccc3)c3ccccc3)N2C1=O gave an IC50 (curve of first compound, second compound 0.01 µM) of 50.5 nM, an IC50 (curve of first compound, second compound 0.0316 µM) of 12 nM and an IC50 [1] of 9.95 nM. The IC50 [2] was 1.27 nM, the IC50 [3] was less than 0.949 nM and the viability, T/C (second compound 0.01 µM, first compound 0.000949 µM) was 73.4%. For the same molecule, the viability, T/C (second compound 0.01 µM, first compound 0.003 µM) was 70.6%, the viability, T/C (second compound 0.01 µM, first compound 0.00949 µM) was 59.4% and the viability, T/C (second compound 0.01 µM, first compound 0.03 µM) was 54.2%. The viability, T/C (second compound 0.01 µM, first compound 0.0949 µM) was 46.8%, the viability, T/C (second compound 0.01 µM, first compound 0.3 µM) was 7.92% and the viability, T/C (second compound 0.0316 µM, first compound 0.000949 µM) was 58.4%. It also gave a viability, T/C (second compound 0.0316 µM, first compound 0.003 µM) of 58.8%, a viability, T/C (second compound 0.0316 µM, first compound 0.00949 µM) of 51.9% and a viability, T/C (second compound 0.0316 µM, first compound 0.03 µM) of 41.4%. The viability, T/C (second compound 0.0316 µM, first compound 0.0949 µM) was 27.8%, the viability, T/C (second compound 0.0316 µM, first compound 0.3 µM) was 7.91% and the viability, T/C (second compound 0.1 µM, first compound 0.000949 µM) was 51%. For the same molecule, the viability, T/C (second compound 0.1 µM, first compound 0.003 µM) was 64.5%, the viability, T/C (second compound 0.1 µM, first compound 0.00949 µM) was 46.6% and the viability, T/C (second compound 0.1 µM, first compound 0.03 µM) was 39.5%. It also gave a viability, T/C (second compound 0.1 µM, first compound 0.0949 µM) of 23.5%, a viability, T/C (second compound 0.1 µM, first compound 0.3 µM) of 5.3% and a viability, T/C (second compound 0.316 µM, first compound 0.000949 µM) of 49.3%. For the same molecule, the viability, T/C (second compound 0.316 µM, first compound 0.003 µM) was 50.1%, the viability, T/C (second compound 0.316 µM, first compound 0.00949 µM) was 43.8% and the viability, T/C (second compound 0.316 µM, first compound 0.03 µM) was 33.6%. The viability, T/C (second compound 0.316 µM, first compound 0.0949 µM) was 24.4%, the viability, T/C (second compound 0.316 µM, first compound 0.3 µM) was 5.39% and the viability, T/C (second compound 1 µM, first compound 0.000949 µM) was 35.7%. For the same molecule, the viability, T/C (second compound 1 µM, first compound 0.003 µM) was 36.7%, the viability, T/C (second compound 1 µM, first compound 0.00949 µM) was 40.4% and the viability, T/C (second compound 1 µM, first compound 0.03 µM) was 35.8%. It also gave a viability, T/C (second compound 1 µM, first compound 0.0949 µM) of 21.8% and a viability, T/C (second compound 1 µM, first compound 0.3 µM) of 6.84%.

Reference: PubChem BioAssay AID1963420 (Molecular Pharmacology Branch, DTP, NCI, 2024)
